# Counter-ions that a name gives are not always drawn.
# Experiments:
# PARP-1 enzyme = PARP-1 enzyme (Homo sapiens (Human), UniProt P09874); test: Poly(ADP-ribose)polymerase [PARP-1] enzyme inhibitory activity (Trevigen PARP Assay kit); format: biochemical; settings: read-out: PARP-1 Inhibitory activity IC50
# How it was run: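 On histone-coated plates, PARP-1 (0.12 unit/well) reacted with compound for 30 min at 25 °C in a 2× cocktail of 1.95 mM NAD+, 50 μM biotinylated NAD+ and activated DNA (Tris pH 8.0, 25 mM MgCl2). Biotin-ribosylated histone was detected with streptavidin-HRP and TACS-Sapphire substrate, stopped with HCl and read at 450 nm.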
# SK-OV-3 Cell line = test: Cell growth inhibition of cancer cell lines (SRB assay), SK-OV-3; format: cell-based
# Description: The tests on cell growth inhibitory activity were performed with respect to A549 (US, ATCC), SK-OV-3 (Korea Research Institute of Chemical Technology; KRICT), HT-29 (US, ATCC), MCF-7 cell (US, ATCC), using Sulforhodamin-B <SRB> Assay (1989, US National Cancer Institute (NCI)) which was developed to measure the in vitro anti-cancer activity of the drug. […] The samples of the compounds of the Examples according to the present invention were used for the tests, and before the tests, the samples were dissolved in dimethylsulfoxide and diluted with the culture medium (RPMI 1640) to be used. The final concentration of the sample was varied in the range of 0.3˜100 μM. After the culture medium was removed from the 96 well plates, the diluted sample solution was added by 100 μl, and cultured in 37° C., 5% CO2 culture medium for 72 hours. The time zero (Tz) plates were collected at the time point of adding the sample. Upon completing the culture, the medium was removed from each well along with Tz plate, then cold 10% trichloroacetic acid (TCA) was added by 100 μl per well. The wells were left at 4° C. for 1 hour, so that the cells were fixed into the bottom of the plates. After the cells were fixed, the plates were rinsed with water five to six times to remove the remaining trichloroacetic acid solution, and moisture was completely dried at room temperature. The cells were dyed for 30 minutes by adding the dye solution in which 0.4% sulforhodamine-B was dissolved in 1% acetic acid solution, by 100 μl per dried wells. The above was rinsed again with 1% acetic acid solution five to six times to ensure that sulforhodamine-B which had not attached to the cells was removed. The plates were again dried at room temperature. 100 μl of 10 mM tris-buffer was then added to dissolve the dye, and the optical density (OD) at 520 nm was measured with the microplate reader. GI50 of the sample regarding cancer cell was calculated as explained below. Time zero (Tz), control value (C) and test value (T) were obtained, in which Tz corresponds to OD value of time at which the sample is applied and culture is started, C corresponds to OD value of the well which is cultured without treatment with the sample, and T corresponds to OD value of the well which is treated with the sample and then cultured. The degree of cell growth inhibition of the sample was measured using: If […] [Mathematical Formula 1]
# Further, the ability of Examples 2, 42, 49, 52, 72, 74, 101 to increase growth inhibition effect of temozolomide and SN-38 at 2 μM was determined.
# [1] = tested on: Rat Middle Cerebral Artery Occlusion (MCAO) Animal Model; test: Neuroprotective effect in rat middle cerebral artery occlusion (MCAO) animal model; format: in vivo; settings: for Infarct volume: 22 hours after reperfusion; for Percent of infraction decrease: vs control group
# Description: Animal test was performed on male Sprague Dawley rats (KOATECH Co., Ltd., South Korea) weighing 280 to 340 g. Animals were given food and water ad libitum and adapted to the test environment for 1 week. The modified intraluminal filament technique as described by Zea Longa et al. (Stroke, 20:84-91, 1989) was used to induce MCAO. The rats were developed ischemic regions due to insufficient blood flow in striatum and temporal lobe which are the domain regions of the middle cerebral artery and depletion of oxygen and energy sources after the middle cerebral artery occlusion. In order to occlude the middle cerebral artery with the intraluminal suture method, 4-0 nylon suture was cut to 22 mm, and 2 mm of the terminal end was rounded by flame heating. In order to increase the effect of damage preventing and occlusion in the lumen, a probe was coated with silicon to 0.3 mm.
# Rats were anaesthetized with isoflurane (3% for induction and 2% for surgical procedure) in a mixture of oxygen/nitrous oxide (30%/70%). The left common carotid artery (CCA) was exposed through a ventral midline incision in the neck. The external carotid artery (ECA), internal carotid artery (ICA), and CCA were carefully isolated and maintained in a Y-shape by use of silk suture. The upper external carotid artery was blocked by a thread, and a minute hole is bored 1 mm below the spot at which the external and internal carotid arteries bifurcate from the common carotid. The probe was inserted in the minute hole and fixed by a thread. The neck wound was closed and each animal was allowed to recover from anesthesia. 120 min after MCA occlusion, each animal was re-anesthetized, and the neck wound was re-opened to remove the thread. Along with the reperfusion, the compound of Example 74 was injected intravenously. 22 hours after the reperfusion, the animals were sacrificed by CO2 suffocation, decapitated, and 2 mm thick six coronal sections were obtained using rodent brain matrix. The coronal slices were incubated in phosphate-buffered saline (PBS) containing 2% 2,3,5-triphenyl tetrazolium chloride (TTC, Sigma) at 37° C. for 30 min, and then fixed in 4% phosphate-buffered formalin. After fixation these brain sections were scanned using a flat-bed scanner. The infarct area was determined by image J (NIH image version 1.59), and the total infarct volume was calculated by: Infarct volume (mm^3)=infarct […]×thickness of slice (2 mm) [Mathematical formula 3]
# The statistical analysis of the decrease of infarct volume was performed by Mann Whitney test (*:p<0.05, **:p<0.01).
# Sequence of PARP-1 enzyme (P09874 whole entry): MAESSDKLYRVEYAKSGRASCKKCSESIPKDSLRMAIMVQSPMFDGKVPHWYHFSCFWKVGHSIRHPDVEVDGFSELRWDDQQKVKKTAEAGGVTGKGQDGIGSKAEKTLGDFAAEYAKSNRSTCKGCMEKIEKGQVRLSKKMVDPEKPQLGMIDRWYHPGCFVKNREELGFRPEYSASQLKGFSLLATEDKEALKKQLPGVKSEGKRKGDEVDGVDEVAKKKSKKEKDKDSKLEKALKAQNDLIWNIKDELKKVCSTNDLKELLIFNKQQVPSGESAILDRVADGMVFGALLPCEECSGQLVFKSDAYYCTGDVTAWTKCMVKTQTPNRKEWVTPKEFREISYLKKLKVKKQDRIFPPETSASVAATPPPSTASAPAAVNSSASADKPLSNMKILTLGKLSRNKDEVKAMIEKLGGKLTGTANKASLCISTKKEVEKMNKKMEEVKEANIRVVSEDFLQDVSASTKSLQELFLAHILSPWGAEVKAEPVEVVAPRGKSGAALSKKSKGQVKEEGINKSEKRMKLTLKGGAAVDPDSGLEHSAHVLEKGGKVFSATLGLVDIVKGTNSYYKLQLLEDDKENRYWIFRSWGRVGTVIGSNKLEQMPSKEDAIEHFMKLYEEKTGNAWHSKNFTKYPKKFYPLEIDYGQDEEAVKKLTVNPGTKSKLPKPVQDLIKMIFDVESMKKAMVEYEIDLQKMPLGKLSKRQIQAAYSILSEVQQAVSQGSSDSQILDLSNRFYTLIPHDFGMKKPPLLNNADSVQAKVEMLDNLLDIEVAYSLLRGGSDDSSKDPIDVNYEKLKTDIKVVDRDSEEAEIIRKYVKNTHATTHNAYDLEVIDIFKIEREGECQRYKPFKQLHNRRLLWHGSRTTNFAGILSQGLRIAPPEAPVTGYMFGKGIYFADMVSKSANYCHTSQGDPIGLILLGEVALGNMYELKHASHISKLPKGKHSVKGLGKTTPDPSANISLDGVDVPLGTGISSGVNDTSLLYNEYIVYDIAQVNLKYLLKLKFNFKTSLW
smiles,measurement,setting,value
"COc1cc(CN2CCOCC2)cc2[nH]c(=O)c3c(c12)NCCC3 [Example 74, 10-Methoxy-8-(morpholinomethyl)-1,2,3,4-tetrahydrobenzo[h][1,6]naphthyridine-5(6H)-one dihydrochloride]",IC50,PARP-1 enzyme,0.23 µM
same,SN-38 PF50,SK-OV-3 Cell line; 2 μM compound,2.2
same,Temozolomide PF50,SK-OV-3 Cell line; 2 μM compound,>5.0
same,GI50,"SK-OV-3 Cell line; Homo sapiens, 72 hours",52 µM
same,Infarct volume,[1]; 10 mg/kg intravenously at reperfusion,252.38 mm^3
same,Percent of infraction decrease,[1]; 10 mg/kg intravenously,4%
same,Infarct volume,[1]; 20 mg/kg intravenously at reperfusion,124.68 mm^3
same,Percent of infraction decrease,[1]; 20 mg/kg intravenously,53%
same,Infarct volume,[1]; 30 mg/kg intravenously at reperfusion,162.88 mm^3
same,Percent of infraction decrease,[1]; 30 mg/kg intravenously,38%

# Source: patent US8815891B2, “Tricyclic derivative or pharmaceutically acceptable salts thereof, preparation method thereof, and pharmaceutical composition containing the same” (Je Il Pharmaceutical Co., Ltd., priority 2008, dated 2014)
